From ChEMBL document CHEMBL1201862, “PubChem BioAssay data set” (2004)
Blank lines part the entries; values can stand above or below the compound they belong to. Calls of active or inactive are those of the source.

How the values were obtained:
[1] = target: T1, Intestinal-type alkaline phosphatase (Homo sapiens, UniProt P09923); test: Dose Response confirmation of uHTS hits from a small molecule inhibitors of human intestinal alkaline phosphatase via a luminescent assay. [Related pubchem assays (depositor defined):AID2544, AID2574]; assay type: functional
T1 sequence (P09923 whole entry): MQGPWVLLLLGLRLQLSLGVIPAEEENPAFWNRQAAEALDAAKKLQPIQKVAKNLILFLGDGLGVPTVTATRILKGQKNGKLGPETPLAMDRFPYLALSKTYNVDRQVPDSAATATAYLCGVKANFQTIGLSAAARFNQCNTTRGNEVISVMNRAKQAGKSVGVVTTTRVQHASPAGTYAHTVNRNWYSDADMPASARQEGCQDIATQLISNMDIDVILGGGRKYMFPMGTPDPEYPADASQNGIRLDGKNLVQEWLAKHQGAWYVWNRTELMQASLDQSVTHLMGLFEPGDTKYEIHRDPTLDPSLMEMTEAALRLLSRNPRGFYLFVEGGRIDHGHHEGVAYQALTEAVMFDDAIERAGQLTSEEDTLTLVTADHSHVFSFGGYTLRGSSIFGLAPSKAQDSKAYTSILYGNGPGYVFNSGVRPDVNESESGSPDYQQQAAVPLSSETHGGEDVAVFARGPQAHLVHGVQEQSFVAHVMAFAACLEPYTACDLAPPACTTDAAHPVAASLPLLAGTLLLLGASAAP

[2] = target: T1, Intestinal-type alkaline phosphatase; test: human intestinal alkaline phosphatase activators, dose response, biochemical, luminescence, uHTS hits (AID 463120); assay type: functional
Troponin, cardiac muscle = Troponin, cardiac muscle (Homo sapiens, UniProt P19429+P45379+P63316); test: Fluorescence-based biochemical high throughput dose response assay for activators of the calcium sensitivity of cardiac Regulated Thin Filaments (RTF). [Related pubchem assays (depositor defined):AID493008, AID493018, AID504382, AID504383]; assay type: protein-complex assay
[3] = target: Disintegrin and metalloproteinase domain-containing protein 17 (Homo sapiens, UniProt P78536); test: exosite inhibitors of ADAM17, dose response, biochemical (AID 743260)
[4] = ADAM10 protease inhibitors, dose response, selectivity assay for ADAM17 exosite inhibitor project, biochemical, FRET peptide substrate, recombinant human ADAM10 (AID 743259);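 further: ADAM10 enzyme cleaving a FRET peptide substrate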
[5] = tested on: Streptococcus sp. 'group A'; test: growth inhibition of control SK(-) GAS strain, dose response, counter-screen for streptokinase expression inhibitor project, luminescence, kanamycin, BacTiterGlo, confirmation (AID 1900); assay type: functional, organism-based
Ion channel NompC = Ion channel NompC (Danio rerio, UniProt Q7T1G6); test: Dose response cell-based high-throughput screening assay for agonists of the transient receptor potential channel N1 (TRPN1). [Related pubchem assays (depositor defined):AID1424, AID1448]; assay type: functional
Chain of Ion channel NompC (Q7T1G6 whole entry): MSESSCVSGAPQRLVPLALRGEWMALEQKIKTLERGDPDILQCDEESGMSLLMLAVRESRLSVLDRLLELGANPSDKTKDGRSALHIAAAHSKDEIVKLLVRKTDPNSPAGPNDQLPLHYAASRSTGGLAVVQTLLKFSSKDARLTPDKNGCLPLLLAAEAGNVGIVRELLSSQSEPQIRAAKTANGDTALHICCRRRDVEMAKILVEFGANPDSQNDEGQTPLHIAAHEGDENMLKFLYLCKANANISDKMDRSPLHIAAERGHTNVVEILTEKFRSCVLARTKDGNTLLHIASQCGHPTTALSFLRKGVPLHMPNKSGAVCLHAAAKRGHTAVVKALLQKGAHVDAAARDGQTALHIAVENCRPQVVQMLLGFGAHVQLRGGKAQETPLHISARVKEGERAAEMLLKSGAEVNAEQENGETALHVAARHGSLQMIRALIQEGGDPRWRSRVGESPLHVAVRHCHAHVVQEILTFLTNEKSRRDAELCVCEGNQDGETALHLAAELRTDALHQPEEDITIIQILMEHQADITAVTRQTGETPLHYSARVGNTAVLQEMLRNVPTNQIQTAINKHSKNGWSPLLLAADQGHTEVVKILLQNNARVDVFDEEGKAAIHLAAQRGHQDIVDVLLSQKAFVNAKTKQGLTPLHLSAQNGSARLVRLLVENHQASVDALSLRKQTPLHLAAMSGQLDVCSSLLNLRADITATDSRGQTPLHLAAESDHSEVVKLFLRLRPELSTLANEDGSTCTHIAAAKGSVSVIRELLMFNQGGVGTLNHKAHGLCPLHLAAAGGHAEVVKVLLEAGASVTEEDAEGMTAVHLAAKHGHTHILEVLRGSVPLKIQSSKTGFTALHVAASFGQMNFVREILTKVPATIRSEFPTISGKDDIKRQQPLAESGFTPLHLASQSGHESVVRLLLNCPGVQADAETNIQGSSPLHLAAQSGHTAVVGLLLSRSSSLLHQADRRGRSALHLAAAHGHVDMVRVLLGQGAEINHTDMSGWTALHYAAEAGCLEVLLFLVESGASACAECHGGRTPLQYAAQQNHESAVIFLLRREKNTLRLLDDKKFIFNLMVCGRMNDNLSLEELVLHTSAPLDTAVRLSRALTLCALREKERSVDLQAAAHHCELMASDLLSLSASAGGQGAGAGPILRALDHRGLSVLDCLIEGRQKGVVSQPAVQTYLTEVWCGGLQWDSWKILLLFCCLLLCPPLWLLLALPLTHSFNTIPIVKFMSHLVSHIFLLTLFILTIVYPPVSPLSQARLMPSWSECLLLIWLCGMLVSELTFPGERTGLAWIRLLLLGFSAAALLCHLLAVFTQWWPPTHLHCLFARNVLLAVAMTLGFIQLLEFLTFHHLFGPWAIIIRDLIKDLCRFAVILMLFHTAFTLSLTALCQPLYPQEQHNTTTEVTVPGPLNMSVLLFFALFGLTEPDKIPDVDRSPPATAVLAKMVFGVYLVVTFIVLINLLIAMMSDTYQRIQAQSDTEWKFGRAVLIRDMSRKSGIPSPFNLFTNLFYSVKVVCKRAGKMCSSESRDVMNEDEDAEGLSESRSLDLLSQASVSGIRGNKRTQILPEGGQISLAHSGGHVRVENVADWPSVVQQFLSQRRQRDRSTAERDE

Mucolipin-3 = target: T2, Mucolipin-3 (Homo sapiens, UniProt Q8TDD5); test: Fluorescence counterscreen assay for […] agonists: dose response cell-based high-throughput screening assay to identify agonists of the transient receptor potential channel ML3 (TRPML3). [Related pubchem assays: 1424, 1448 ]; assay type: functional
T2 sequence (Q8TDD5 whole entry): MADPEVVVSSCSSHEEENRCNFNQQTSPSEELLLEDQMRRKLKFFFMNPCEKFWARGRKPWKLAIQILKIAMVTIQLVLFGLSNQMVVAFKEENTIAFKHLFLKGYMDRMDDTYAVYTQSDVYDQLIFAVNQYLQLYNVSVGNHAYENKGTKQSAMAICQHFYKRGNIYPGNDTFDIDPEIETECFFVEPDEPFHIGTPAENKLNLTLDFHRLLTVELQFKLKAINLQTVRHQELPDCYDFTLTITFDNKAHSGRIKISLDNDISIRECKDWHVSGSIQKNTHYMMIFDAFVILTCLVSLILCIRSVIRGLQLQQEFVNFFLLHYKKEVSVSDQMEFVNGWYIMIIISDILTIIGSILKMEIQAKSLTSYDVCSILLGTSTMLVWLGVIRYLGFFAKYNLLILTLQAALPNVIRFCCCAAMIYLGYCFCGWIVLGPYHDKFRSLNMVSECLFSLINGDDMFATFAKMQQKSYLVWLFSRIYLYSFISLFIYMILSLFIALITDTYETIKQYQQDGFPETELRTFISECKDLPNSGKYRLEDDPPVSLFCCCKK

Streptococcus = test: Group A Streptococcus viability loss, dose response, counter-screen for streptokinase expression inhibitor project, luminescence, BacTiterGlo (AID 1915); assay type: functional, organism-based;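 further: potency for reduction of bacterial viability or growth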
Large T antigen = Large T antigen (Simian virus 40, UniProt P03070); assay type: functional, Betapolyomavirus macacae;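 further: Confirmatory-stage PubChem screen for compounds that inhibit SV40 T antigen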
ORF 73 = target: T3, ORF 73 (Human herpesvirus 8, UniProt O40947); test: inhibitors of C-LANA binding to LBS DNA, dose response, biochemical, fluorescence polarization, cherry-picked samples (AID 504725); parameters: species or system Human gammaherpesvirus 8;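 further: fluorescence polarization of a labeled DNA duplex reporting LANA DNA binding; potency is for inhibitors that block LANA binding to the DNA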
T3 sequence (O40947 whole entry): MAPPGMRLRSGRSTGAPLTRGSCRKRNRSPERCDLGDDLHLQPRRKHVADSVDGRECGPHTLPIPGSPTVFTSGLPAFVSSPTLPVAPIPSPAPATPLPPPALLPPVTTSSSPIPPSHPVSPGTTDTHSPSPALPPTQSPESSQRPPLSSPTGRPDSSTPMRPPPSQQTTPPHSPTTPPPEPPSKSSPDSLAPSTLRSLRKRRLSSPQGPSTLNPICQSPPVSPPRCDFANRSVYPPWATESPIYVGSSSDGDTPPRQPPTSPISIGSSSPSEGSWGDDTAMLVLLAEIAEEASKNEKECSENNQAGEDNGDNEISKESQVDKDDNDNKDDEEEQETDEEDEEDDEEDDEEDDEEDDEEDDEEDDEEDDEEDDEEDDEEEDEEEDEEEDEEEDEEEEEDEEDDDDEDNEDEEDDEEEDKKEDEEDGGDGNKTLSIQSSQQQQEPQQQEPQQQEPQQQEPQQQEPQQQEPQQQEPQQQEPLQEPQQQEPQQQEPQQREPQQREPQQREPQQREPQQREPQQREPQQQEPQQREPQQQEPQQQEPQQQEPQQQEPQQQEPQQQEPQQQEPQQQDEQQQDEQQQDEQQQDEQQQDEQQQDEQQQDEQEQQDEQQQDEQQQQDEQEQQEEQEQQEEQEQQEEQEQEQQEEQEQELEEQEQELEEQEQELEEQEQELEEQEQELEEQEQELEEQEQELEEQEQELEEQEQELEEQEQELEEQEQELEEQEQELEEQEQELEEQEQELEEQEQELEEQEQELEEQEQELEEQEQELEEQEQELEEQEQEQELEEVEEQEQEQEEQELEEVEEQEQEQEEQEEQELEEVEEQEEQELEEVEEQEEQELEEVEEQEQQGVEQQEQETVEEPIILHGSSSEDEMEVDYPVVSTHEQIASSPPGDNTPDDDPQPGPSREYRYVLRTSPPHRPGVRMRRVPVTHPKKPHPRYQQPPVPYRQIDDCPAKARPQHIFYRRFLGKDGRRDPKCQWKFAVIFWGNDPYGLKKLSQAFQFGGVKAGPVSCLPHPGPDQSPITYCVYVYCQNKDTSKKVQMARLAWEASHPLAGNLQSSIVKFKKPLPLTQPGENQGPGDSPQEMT

[6] = target: T1, Intestinal-type alkaline phosphatase; test: activation of human intestinal alkaline phosphatase – biochemical, dose response (AID 488873); assay type: functional
[7] = target: T4, Intestinal-type alkaline phosphatase (Mus musculus, UniProt P24822); test: PubChem AID 488785; assay type: functional
T4 sequence (P24822 whole entry): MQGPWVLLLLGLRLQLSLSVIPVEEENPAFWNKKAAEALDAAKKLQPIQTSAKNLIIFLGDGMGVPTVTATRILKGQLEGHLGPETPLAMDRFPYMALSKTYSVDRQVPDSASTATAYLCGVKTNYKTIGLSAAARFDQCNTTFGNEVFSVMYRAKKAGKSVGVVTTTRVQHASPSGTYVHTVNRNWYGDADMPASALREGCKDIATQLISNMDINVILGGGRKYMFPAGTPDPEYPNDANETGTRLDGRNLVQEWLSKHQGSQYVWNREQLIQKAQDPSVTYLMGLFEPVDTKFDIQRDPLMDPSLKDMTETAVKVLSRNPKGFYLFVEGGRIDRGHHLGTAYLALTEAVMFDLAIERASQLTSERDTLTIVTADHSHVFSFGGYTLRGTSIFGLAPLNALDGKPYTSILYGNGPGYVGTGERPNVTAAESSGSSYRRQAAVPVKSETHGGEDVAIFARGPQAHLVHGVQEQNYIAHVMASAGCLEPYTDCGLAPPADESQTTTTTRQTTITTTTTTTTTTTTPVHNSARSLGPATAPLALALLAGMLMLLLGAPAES

[8] = target: T5, Alkaline phosphatase, tissue-nonspecific isozyme (Homo sapiens, UniProt P05186); test: TNAP enzyme inhibition by screening hits, dose response, selectivity assay for mouse IAP inhibitor project, biochemical, human TNAP, uHTS hits (AID 488906); assay type: functional
T5 sequence (P05186 whole entry): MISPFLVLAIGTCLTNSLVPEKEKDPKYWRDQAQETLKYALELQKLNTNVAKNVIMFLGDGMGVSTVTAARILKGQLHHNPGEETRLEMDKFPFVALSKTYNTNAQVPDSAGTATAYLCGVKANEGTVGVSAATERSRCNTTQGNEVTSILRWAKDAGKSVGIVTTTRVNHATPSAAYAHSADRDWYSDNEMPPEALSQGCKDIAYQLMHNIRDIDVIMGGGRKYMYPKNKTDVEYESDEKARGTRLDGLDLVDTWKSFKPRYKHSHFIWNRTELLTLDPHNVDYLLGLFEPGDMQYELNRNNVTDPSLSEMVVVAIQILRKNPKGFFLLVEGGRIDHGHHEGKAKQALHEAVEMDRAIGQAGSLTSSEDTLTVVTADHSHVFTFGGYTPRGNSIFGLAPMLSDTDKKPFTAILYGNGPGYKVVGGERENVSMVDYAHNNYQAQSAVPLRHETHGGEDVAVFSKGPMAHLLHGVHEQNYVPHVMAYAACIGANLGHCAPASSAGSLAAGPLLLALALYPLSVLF

Cysteine protease ATG4B = target: T6, Cysteine protease ATG4B (Homo sapiens, UniProt Q9Y4P1); assay type: functional;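 further: Fluorescence-based dose-response confirmation assay measuring inhibition of ATG4B activity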
T6 sequence (Q9Y4P1 whole entry): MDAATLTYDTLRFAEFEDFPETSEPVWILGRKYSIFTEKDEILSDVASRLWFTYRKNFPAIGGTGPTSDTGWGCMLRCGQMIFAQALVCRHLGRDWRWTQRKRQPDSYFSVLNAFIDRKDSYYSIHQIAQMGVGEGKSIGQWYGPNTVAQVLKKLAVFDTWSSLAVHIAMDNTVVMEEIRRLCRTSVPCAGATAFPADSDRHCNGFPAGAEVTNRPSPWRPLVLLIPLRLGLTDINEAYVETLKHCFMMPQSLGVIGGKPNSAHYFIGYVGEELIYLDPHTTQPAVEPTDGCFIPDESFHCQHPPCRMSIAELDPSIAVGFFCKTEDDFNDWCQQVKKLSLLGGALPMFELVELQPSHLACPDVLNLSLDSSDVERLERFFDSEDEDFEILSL

Phospholipase A2 = Phospholipase A2 (Homo sapiens, UniProt P04054); assay type: functional;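 further: confirmatory dose-response counterscreen on phospholipase A2, testing hits that came from an ultra-high-throughput screen for ATG4B inhibitors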
[9] = target: 26S proteasome non-ATPase regulatory subunit 14 (Homo sapiens, UniProt O00487); test: inhibition of proteasome subunit RPN11 – biochemical, fluorescence polarization, uHTS hits, confirmation (AID 602368); assay type: functional
[10] = target: 72 kDa type IV collagenase (Homo sapiens, UniProt P08253); test: Dose Response validation of uHTS RPN11 inhibitor hits using a MMP-2 Fluorescence assay.; assay type: functional
Prothrombin = Prothrombin (Bos taurus, UniProt P00735); test: thrombin inhibition, dose response, biochemical, fluorescence polarization, uHTS hits (AID 602369); assay type: functional
[11] = target: 1-phosphatidylinositol 4,5-bisphosphate phosphodiesterase gamma-1 (Homo sapiens, UniProt P19174); test: Counterscreen for inhibitors of phospholipase C isozymes (PLC-B3): Fluorescence-based biochemical high throughput dose response assay to identify inhibitors of phospholipase C isozymes (PLC-gamma1).
[12] = target: 1-phosphatidylinositol 4,5-bisphosphate phosphodiesterase beta-3 (Homo sapiens, UniProt Q01970); test: Fluorescence-based biochemical high throughput dose response assay to identify inhibitors of phospholipase C isozymes (PLC-B3).
[13] = target: Voltage-dependent T-type calcium channel subunit alpha-1H (Homo sapiens, UniProt O95180); test: Cav3.2 T-type channel inhibitors, synthesized analogs, SAR follow-up, cell-based, synthetic library set 2, HEK293 HH8, Fluo-4 (AID 493023); assay type: functional
Chain of Voltage-dependent T-type calcium channel subunit alpha-1H (O95180 whole entry): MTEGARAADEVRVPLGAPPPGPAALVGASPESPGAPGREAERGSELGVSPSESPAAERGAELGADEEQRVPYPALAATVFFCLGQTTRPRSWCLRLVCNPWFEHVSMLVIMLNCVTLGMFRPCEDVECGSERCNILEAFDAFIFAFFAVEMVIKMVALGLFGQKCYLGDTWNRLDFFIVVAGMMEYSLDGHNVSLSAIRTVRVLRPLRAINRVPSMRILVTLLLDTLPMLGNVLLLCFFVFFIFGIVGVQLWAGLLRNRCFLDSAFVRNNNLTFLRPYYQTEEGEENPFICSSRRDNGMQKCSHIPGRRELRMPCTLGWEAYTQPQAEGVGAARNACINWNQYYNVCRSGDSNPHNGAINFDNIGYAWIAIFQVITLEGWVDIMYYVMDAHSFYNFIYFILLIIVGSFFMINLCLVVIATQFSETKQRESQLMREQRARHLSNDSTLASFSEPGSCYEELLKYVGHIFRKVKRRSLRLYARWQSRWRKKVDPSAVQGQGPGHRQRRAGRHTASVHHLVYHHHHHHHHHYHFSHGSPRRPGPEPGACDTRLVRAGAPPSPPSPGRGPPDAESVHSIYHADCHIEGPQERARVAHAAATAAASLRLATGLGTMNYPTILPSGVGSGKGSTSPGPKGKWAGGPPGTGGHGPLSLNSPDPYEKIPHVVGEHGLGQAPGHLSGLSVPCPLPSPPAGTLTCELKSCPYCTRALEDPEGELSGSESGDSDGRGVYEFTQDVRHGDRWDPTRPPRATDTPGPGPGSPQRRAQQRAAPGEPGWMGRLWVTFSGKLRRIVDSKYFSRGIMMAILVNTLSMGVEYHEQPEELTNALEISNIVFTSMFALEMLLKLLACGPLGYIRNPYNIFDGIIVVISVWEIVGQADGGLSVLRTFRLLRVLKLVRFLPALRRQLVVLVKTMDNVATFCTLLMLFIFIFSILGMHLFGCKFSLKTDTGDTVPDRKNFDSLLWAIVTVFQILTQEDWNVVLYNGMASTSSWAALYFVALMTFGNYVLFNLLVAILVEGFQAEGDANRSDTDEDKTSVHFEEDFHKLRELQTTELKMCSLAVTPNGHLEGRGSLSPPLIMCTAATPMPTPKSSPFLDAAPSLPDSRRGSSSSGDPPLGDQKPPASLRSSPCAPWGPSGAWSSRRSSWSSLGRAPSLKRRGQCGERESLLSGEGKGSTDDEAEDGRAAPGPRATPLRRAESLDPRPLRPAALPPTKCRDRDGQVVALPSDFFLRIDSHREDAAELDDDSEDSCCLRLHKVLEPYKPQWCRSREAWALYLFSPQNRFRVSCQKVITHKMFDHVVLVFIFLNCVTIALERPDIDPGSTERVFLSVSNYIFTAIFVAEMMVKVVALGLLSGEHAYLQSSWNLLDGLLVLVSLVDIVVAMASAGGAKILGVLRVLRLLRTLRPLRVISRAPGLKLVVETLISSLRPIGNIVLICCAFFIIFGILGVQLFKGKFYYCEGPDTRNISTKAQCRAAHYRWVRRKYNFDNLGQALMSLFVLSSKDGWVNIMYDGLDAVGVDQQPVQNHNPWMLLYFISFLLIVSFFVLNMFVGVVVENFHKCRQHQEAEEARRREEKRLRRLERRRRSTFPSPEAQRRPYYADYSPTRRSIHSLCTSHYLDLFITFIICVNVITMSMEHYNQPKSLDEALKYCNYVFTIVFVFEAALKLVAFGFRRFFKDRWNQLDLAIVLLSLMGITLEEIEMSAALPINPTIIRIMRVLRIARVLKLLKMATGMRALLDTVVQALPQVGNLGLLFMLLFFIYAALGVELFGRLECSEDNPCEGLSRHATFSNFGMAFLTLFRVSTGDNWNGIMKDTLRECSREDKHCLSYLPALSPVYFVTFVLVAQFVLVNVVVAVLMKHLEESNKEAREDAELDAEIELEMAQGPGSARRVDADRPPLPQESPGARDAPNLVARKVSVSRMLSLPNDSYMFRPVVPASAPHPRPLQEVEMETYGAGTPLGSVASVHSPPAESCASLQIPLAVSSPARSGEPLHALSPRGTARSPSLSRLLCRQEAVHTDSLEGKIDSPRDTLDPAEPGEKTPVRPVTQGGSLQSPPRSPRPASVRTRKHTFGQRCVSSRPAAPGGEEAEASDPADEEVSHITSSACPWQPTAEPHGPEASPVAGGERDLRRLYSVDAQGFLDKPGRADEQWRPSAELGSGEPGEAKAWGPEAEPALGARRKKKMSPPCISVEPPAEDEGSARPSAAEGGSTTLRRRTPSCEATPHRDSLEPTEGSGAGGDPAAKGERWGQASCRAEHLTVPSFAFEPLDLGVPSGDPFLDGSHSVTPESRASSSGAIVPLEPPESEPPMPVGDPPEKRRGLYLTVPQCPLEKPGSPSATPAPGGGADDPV

[14] = target: T4, Intestinal-type alkaline phosphatase; test: mouse intestinal alkaline phosphatase activators, dose response, biochemical, luminescence, uHTS hits (AID 488783); assay type: functional
[15] = target: T5, Alkaline phosphatase, tissue-nonspecific isozyme; test: TNAP enzyme activators, dose response, selectivity assay for mouse IAP activator project, biochemical, TNAP isozyme, mouse IAP uHTS hits (AID 488880); assay type: functional

SMILES: CCOc1cc(/C=C(\C#N)c2nc(-c3cccs3)c(NC(C)=O)s2)ccc1O
EC50 [5]: 0.628 µM (active)
EC50 (Ion channel NompC): 13.4 µM (inactive)
EC50 (Mucolipin-3): > 29.9 µM (not active)
EC50 (Streptococcus): 2.02 µM (active)

SMILES: O=C(CN1C(=O)/C(=C/c2ccco2)SC1=S)Nc1ccc(C(=O)O)c(O)c1
IC50 (Large T antigen): 76.9 µM (active)
AC50 (ORF 73): 76.1 µM (active)
EC50 [6]: > 100 µM (inactive)
IC50 [7]: 9.42 µM (active)
IC50 [8]: > 100 µM (inactive)
IC50 (Cysteine protease ATG4B): 6.89 µM (active)
IC50 (Phospholipase A2): 16.8 µM (active)
IC50 [9]: 19.4 µM (active)
IC50 [10]: 2.32 µM (active)
IC50 (Prothrombin): 45.8 µM (active)
IC50 [11]: > 122 µM (inactive)
IC50 [12]: > 122 µM (inactive)

SMILES: COc1ccc(/N=C2\SC(C(N)=O)CC(=O)N2CCc2ccc(OC)c(OC)c2)cc1 (stereo unspecified)
EC50 [6]: 59.6 µM (active)
EC50 [14]: 13.3 µM (active)
EC50 [15]: 48.9 µM (active)

The next lines start with results.

IC50 [1]: > 100 µM (inactive)
EC50 [2]: > 100 µM (inactive)
SMILES: CC(C)CCNC(=O)C1CCN(C(=O)N(C)C)CC1

EC50 (Troponin, cardiac muscle): 14.4 µM (inactive)
IC50 [3]: > 23.2 µM (inactive)
SMILES: CCC(C(=O)O)N1C(=O)/C(=C/c2cccn2C)SC1=S (stereo unspecified)
IC50 [4]: 12.5 µM (inactive)

EC50 [13]: 10 µM (active)
SMILES: O=C(N[C@H]1CCCN(Cc2ccccc2)C1)c1ccc(Cl)cc1Cl

EC50 [13]: 10 µM (active)
SMILES: CC(C)(C)CCN1CCC[C@H](NC(=O)c2cc(Cl)cc(Cl)c2)C1
